Measurements reported in PubChem BioAssay AID256 (DTP/NCI, 2004).
“And” between values parts separate entries of the source, which are not always exact repeats. Equal values may be shown once. Toxic doses and inconclusive results are not listed.

Tested on: CD2F1 mice, L1210 leukemia ip, survival T/C
Experiment: NCI In Vivo Anticancer Drug Screen. Data for tumor model L1210 Leukemia (intraperitoneal) in CD2F1 (CDF1) mice
Conditions: higher = longer survival
Procedure, shortened: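 Transplantable tumor in mice; compound-treated vs vehicle-treated groups. Read-out = treated/control ratio of the measured endpoint.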

O=C1NC(=O)C2C3C=CC(C12)C1C2C(=O)NC(=O)C2C31 (stereo not drawn)
T/C (endpoint: mean survival time, dose: 12.5 mg/kg/injection, schedule: Q01DX009 (ip), vehicle: saline with Tween-80): 115 % of control | T/C (endpoint: mean survival time, dose: 12.5 mg/kg/injection, schedule: Q01DX009 (oral), vehicle: saline with Tween-80): 100 % of control | T/C (endpoint: mean survival time, dose: 25.0 mg/kg/injection, schedule: Q01DX009 (oral), vehicle: saline with Tween-80): 96 % of control | T/C (endpoint: mean survival time, dose: 50.0 mg/kg/injection, schedule: Q01DX009 (ip), vehicle: saline with Tween-80): 164 % of control | T/C (endpoint: mean survival time, dose: 50.0 mg/kg/injection, schedule: Q01DX009 (oral), vehicle: saline with Tween-80): 101 % of control | T/C (endpoint: mean survival time, dose: 100.0 mg/kg/injection, schedule: Q01DX009 (ip), vehicle: saline with Tween-80): 188 % of control | T/C (endpoint: mean survival time, dose: 100.0 mg/kg/injection, schedule: Q01DX009 (oral), vehicle: saline with Tween-80): 104 % of control | T/C (endpoint: mean survival time, dose: 200.0 mg/kg/injection, schedule: Q01DX009 (oral), vehicle: saline with Tween-80): 101 % of control | T/C (endpoint: mean survival time, dose: 400.0 mg/kg/injection, schedule: Q01DX009 (oral), vehicle: saline with Tween-80): 111 % of control | T/C (endpoint: median survival time, dose: 2.6 mg/kg/injection, schedule: Q03HX024 (ip), vehicle: clinical formulation): 110 % of control | T/C (endpoint: median survival time, dose: 3.12 mg/kg/injection, schedule: Q01DX009 (ip), vehicle: clinical formulation): 106 % of control | T/C (endpoint: median survival time, dose: 3.12 mg/kg/injection, schedule: Q01DX009 (ip), vehicle: saline with Tween-80): 108 % of control | T/C (endpoint: median survival time, dose: 6.0 mg/kg/injection, schedule: Q03HX027 (ip), vehicle: saline): 112 % of control | T/C (endpoint: median survival time, dose: 6.25 mg/kg/injection, schedule: Q01DX009 (ip), vehicle: clinical formulation): 108 % of control | T/C (endpoint: median survival time, dose: 6.9 mg/kg/injection, schedule: Q01DX009 (ip), vehicle: clinical formulation): 102 % of control | T/C (endpoint: median survival time, dose: 7.8 mg/kg/injection, schedule: Q03HX008 (ip), vehicle: clinical formulation): 162 % of control | T/C (endpoint: median survival time, dose: 10.4 mg/kg/injection, schedule: Q03HX024 (ip), vehicle: clinical formulation): 162 % of control | T/C (endpoint: median survival time, dose: 11.8 mg/kg/injection, schedule: Q01DX009 (ip), vehicle: water): 108 % of control | T/C (endpoint: median survival time, dose: 12.5 mg/kg/injection, schedule: Q01DX005 (ip), vehicle: clinical formulation): 100 % of control | T/C (endpoint: median survival time, dose: 12.5 mg/kg/injection, schedule: Q01DX005 (ip), vehicle: other): 101 % of control and 106 % of control | T/C (endpoint: median survival time, dose: 12.5 mg/kg/injection, schedule: Q01DX005 (iv), vehicle: clinical formulation): 108 % of control | T/C (endpoint: median survival time, dose: 12.5 mg/kg/injection, schedule: Q01DX005 (iv), vehicle: other): 103 % of control and 104 % of control | T/C (endpoint: median survival time, dose: 12.5 mg/kg/injection, schedule: Q01DX009 (ip), vehicle: clinical formulation): 112 % of control | T/C (endpoint: median survival time, dose: 12.5 mg/kg/injection, schedule: Q01DX009 (ip), vehicle: saline with Tween-80): 116 % of control | T/C (endpoint: median survival time, dose: 12.5 mg/kg/injection, schedule: Q01DX009 (oral), vehicle: other): 100 % of control | T/C (endpoint: median survival time, dose: 13.8 mg/kg/injection, schedule: Q01DX009 (ip), vehicle: clinical formulation): 101 % of control | T/C (endpoint: median survival time, dose: 14.0 mg/kg/injection, schedule: Q01DX009 (ip), vehicle: water): 117 % of control | T/C (endpoint: median survival time, dose: 16.7 mg/kg/injection, schedule: Q03HX027 (ip), vehicle: saline): 152 % of control | T/C (endpoint: median survival time, dose: 18.0 mg/kg/injection, schedule: Q01DX009 (ip), vehicle: clinical formulation): 110 % of control | T/C (endpoint: median survival time, dose: 18.0 mg/kg/injection, schedule: Q01DX009 (ip), vehicle: saline): 103 % of control | T/C (endpoint: median survival time, dose: 18.0 mg/kg/injection, schedule: Q01DX009 (ip), vehicle: water): 113 % of control | T/C (endpoint: median survival time, dose: 19.7 mg/kg/injection, schedule: Q01DX009 (ip), vehicle: water): 107 % of control | T/C (endpoint: median survival time, dose: 20.8 mg/kg/injection, schedule: Q03HX024 (ip), vehicle: clinical formulation): 114 % of control | T/C (endpoint: median survival time, dose: 20.8 mg/kg/injection, schedule: Q04DX003 (ip), vehicle: clinical formulation): 121 % of control | T/C (endpoint: median survival time, dose: 23.3 mg/kg/injection, schedule: Q01DX009 (ip), vehicle: water): 150 % of control | T/C (endpoint: median survival time, dose: 25.0 mg/kg/injection, schedule: Q01DX001 (iv), vehicle: other): 100 % of control | T/C (endpoint: median survival time, dose: 25.0 mg/kg/injection, schedule: Q01DX005 (ip), vehicle: clinical formulation): 114 % of control | T/C (endpoint: median survival time, dose: 25.0 mg/kg/injection, schedule: Q01DX005 (ip), vehicle: other): 108 % of control | T/C (endpoint: median survival time, dose: 25.0 mg/kg/injection, schedule: Q01DX005 (iv), vehicle: other): 101 % of control and 109 % of control | T/C (endpoint: median survival time, dose: 25.0 mg/kg/injection, schedule: Q01DX005 (oral), vehicle: other): 98 % of control | T/C (endpoint: median survival time, dose: 25.0 mg/kg/injection, schedule: Q01DX009 (ip), vehicle: clinical formulation): 122 % of control | T/C (endpoint: median survival time, dose: 25.0 mg/kg/injection, schedule: Q01DX009 (oral), vehicle: other): 98 % of control | T/C (endpoint: median survival time, dose: 27.7 mg/kg/injection, schedule: Q01DX009 (ip), vehicle: clinical formulation): 154 % of control | T/C (endpoint: median survival time, dose: 27.8 mg/kg/injection, schedule: Q03HX027 (ip), vehicle: saline): 183 % of control | T/C (endpoint: median survival time, dose: 30.0 mg/kg/injection, schedule: Q01DX009 (ip), vehicle: clinical formulation): 166 % of control | T/C (endpoint: median survival time, dose: 30.0 mg/kg/injection, schedule: Q01DX009 (ip), vehicle: water): 186 % of control | T/C (endpoint: median survival time, dose: 32.9 mg/kg/injection, schedule: Q01DX009 (ip), vehicle: water): 226 % of control | T/C (endpoint: median survival time, dose: 38.9 mg/kg/injection, schedule: Q01DX009 (ip), vehicle: water): 200 % of control | T/C (endpoint: median survival time, dose: 46.3 mg/kg/injection, schedule: Q03HX027 (ip), vehicle: saline): 88 % of control | T/C (endpoint: median survival time, dose: 50.0 mg/kg/injection, schedule: Q01DX001 (iv), vehicle: other): 106 % of control | T/C (endpoint: median survival time, dose: 50.0 mg/kg/injection, schedule: Q01DX001 (oral), vehicle: other): 100 % of control | T/C (endpoint: median survival time, dose: 50.0 mg/kg/injection, schedule: Q01DX005 (ip), vehicle: clinical formulation): 198 % of control | T/C (endpoint: median survival time, dose: 50.0 mg/kg/injection, schedule: Q01DX005 (iv), vehicle: clinical formulation): 174 % of control | T/C (endpoint: median survival time, dose: 50.0 mg/kg/injection, schedule: Q01DX005 (iv), vehicle: other): 185 % of control | T/C (endpoint: median survival time, dose: 50.0 mg/kg/injection, schedule: Q01DX005 (oral), vehicle: other): 101 % of control | T/C (endpoint: median survival time, dose: 50.0 mg/kg/injection, schedule: Q01DX009 (ip), vehicle: clinical formulation): 176 % of control and 203 % of control | T/C (endpoint: median survival time, dose: 50.0 mg/kg/injection, schedule: Q01DX009 (ip), vehicle: saline with Tween-80): 246 % of control | T/C (endpoint: median survival time, dose: 50.0 mg/kg/injection, schedule: Q01DX009 (ip), vehicle: saline): 160 % of control | T/C (endpoint: median survival time, dose: 50.0 mg/kg/injection, schedule: Q01DX009 (ip), vehicle: water): 256 % of control | T/C (endpoint: median survival time, dose: 50.0 mg/kg/injection, schedule: Q01DX009 (oral), vehicle: other): 109 % of control | T/C (endpoint: median survival time, dose: 54.8 mg/kg/injection, schedule: Q01DX009 (ip), vehicle: water): 119 % of control | T/C (endpoint: median survival time, dose: 55.5 mg/kg/injection, schedule: Q01DX009 (ip), vehicle: clinical formulation): 284 % of control | T/C (endpoint: median survival time, dose: 55.5 mg/kg/injection, schedule: Q01DX009 (oral), vehicle: clinical formulation): 108 % of control | T/C (endpoint: median survival time, dose: 62.5 mg/kg/injection, schedule: Q01DX001 (iv), vehicle: clinical formulation): 151 % of control | T/C (endpoint: median survival time, dose: 64.8 mg/kg/injection, schedule: Q01DX009 (ip), vehicle: water): 268 % of control | T/C (endpoint: median survival time, dose: 83.3 mg/kg/injection, schedule: Q01DX009 (ip), vehicle: clinical formulation): 112 % of control | T/C (endpoint: median survival time, dose: 83.3 mg/kg/injection, schedule: Q01DX009 (ip), vehicle: saline): 106 % of control | T/C (endpoint: median survival time, dose: 83.3 mg/kg/injection, schedule: Q01DX009 (ip), vehicle: water): 97 % of control | T/C (endpoint: median survival time, dose: 83.3 mg/kg/injection, schedule: Q04DX003 (ip), vehicle: clinical formulation): 182 % of control | T/C (endpoint: median survival time, dose: 100.0 mg/kg/injection, schedule: Q01DX001 (iv), vehicle: other): 104 % of control | T/C (endpoint: median survival time, dose: 100.0 mg/kg/injection, schedule: Q01DX001 (oral), vehicle: other): 98 % of control | T/C (endpoint: median survival time, dose: 100.0 mg/kg/injection, schedule: Q01DX005 (iv), vehicle: other): 150 % of control and 195 % of control | T/C (endpoint: median survival time, dose: 100.0 mg/kg/injection, schedule: Q01DX005 (oral), vehicle: other): 100 % of control | T/C (endpoint: median survival time, dose: 100.0 mg/kg/injection, schedule: Q01DX009 (oral), vehicle: other): 114 % of control | T/C (endpoint: median survival time, dose: 111.1 mg/kg/injection, schedule: Q01DX009 (ip), vehicle: clinical formulation): 93 % of control | T/C (endpoint: median survival time, dose: 111.1 mg/kg/injection, schedule: Q01DX009 (oral), vehicle: clinical formulation): 121 % of control | T/C (endpoint: median survival time, dose: 125.0 mg/kg/injection, schedule: Q01DX001 (ip), vehicle: clinical formulation): 170 % of control | T/C (endpoint: median survival time, dose: 200.0 mg/kg/injection, schedule: Q01DX001 (iv), vehicle: other): 104 % of control | T/C (endpoint: median survival time, dose: 200.0 mg/kg/injection, schedule: Q01DX001 (oral), vehicle: other): 98 % of control | T/C (endpoint: median survival time, dose: 200.0 mg/kg/injection, schedule: Q01DX005 (ip), vehicle: other): 109 % of control | T/C (endpoint: median survival time, dose: 200.0 mg/kg/injection, schedule: Q01DX005 (iv), vehicle: other): 158 % of control | T/C (endpoint: median survival time, dose: 200.0 mg/kg/injection, schedule: Q01DX005 (oral), vehicle: other): 110 % of control | T/C (endpoint: median survival time, dose: 400.0 mg/kg/injection, schedule: Q01DX001 (iv), vehicle: other): 101 % of control | T/C (endpoint: median survival time, dose: 400.0 mg/kg/injection, schedule: Q01DX001 (oral), vehicle: other): 98 % of control | T/C (endpoint: median survival time, dose: 400.0 mg/kg/injection, schedule: Q01DX005 (oral), vehicle: other): 112 % of control | T/C (endpoint: median survival time, dose: 444.4 mg/kg/injection, schedule: Q01DX009 (oral), vehicle: clinical formulation): 158 % of control | T/C (endpoint: median survival time, dose: 800.0 mg/kg/injection, schedule: Q01DX001 (oral), vehicle: other): 102 % of control | T/C (endpoint: median survival time, dose: 888.8 mg/kg/injection, schedule: Q01DX009 (oral), vehicle: clinical formulation): 184 % of control
